Entries after “also recorded” stand apart in the source; their conditions may differ.
Legend:
[1] = Weight control and P/F ratio of animals, general statements; type: in vivo; details: for Improved P/F ratio, lowest dosage / Weight control activity, lowest dosage: decreasing dosage
[2] = tested on: endocrine system; assay: Endocrine suppression activity in animals, general statements; type: in vivo
[3] = tested on: endocrine system; details: cited from earlier work; for Endocrine suppression, weight control and P/F ratio: levels of administration described in the copending application; for Production of gonadal hormones / Production of thyroid hormones: parenteral administration, copending application
[4] = Body weight and naso-anal length of adult male rats after weekly subcutaneous injections (Example 1); type: in vivo, Sprague-Dawley rat
Protocol: (§1) Adult male Sprague-Dawley rats (≈250 g) were injected subcutaneously with CoPP 1 μmol/kg b.w. (12 rats) or vehicle (12 rats) on day 0. Thereafter, injections (Vertical arrows in FIG. 1) were repeated weekly until 10 doses had been given. Animals were allowed Purina rat chow and water ad libitum and animal weights were recorded thrice weekly; means are presented in FIG. 1 ( is control and treated animals). On day 71, 6 control rats and 6 CoPP-treated rats were sacrificed, blood collected for hormone determinations and hepatic mitochondrial and microsomal fractions prepared for biochemical assays. These procedures were repeated at day 124 for the remainder of the animals.
(§2) The effects of 10 serial doses of CoPP 1 μmol/kg b.w. on weight,
(§3) *n = 12; for all other parameters, n = 6 animals per treatment.
**As calculated by Student's Ttest. The only significant changes are in […]

[5] = tested on: Testosterone; assay: Testosterone concentration in blood of subcutaneously treated rats (Example 1); type: in vivo, Sprague-Dawley rat; details: 10 serial doses of CoPP 1 μmol/kg b.w. s.c., n = 6
Protocol: as §1, §2, §3

[6] = tested on: LH; assay: LH concentration in blood of subcutaneously treated rats (Example 1); type: in vivo, Sprague-Dawley rat; details: Day 124; 10 serial doses of CoPP 1 μmol/kg b.w. s.c.; n = 6; control 21.1 ± 3.29
Protocol: as §1, §2, §3

[7] = tested on: Insulin; assay: Insulin concentration in blood of subcutaneously treated rats (Example 1); type: in vivo, Sprague-Dawley rat; details: Day 124; 10 serial doses of CoPP 1 μmol/kg b.w. s.c.; n = 6; control 156 ± 47.6
Protocol: as §1, §2, §3

[8] = tested on: Cytochrome P-450; assay: Hepatic cytochrome P-450 content of treated rats (Example 1); type: in vivo, Sprague-Dawley rat; details: Day 71; 10 serial doses of CoPP 1 μmol/kg b.w. s.c.; n = 6; control 1.06 ± 0.23
Protocol: as §1, §2, §3

[9] = tested on: Heme oxygenase; assay: Hepatic heme oxygenase activity of treated rats (Example 1); type: in vivo, Sprague-Dawley rat; details: Day 71; 10 serial doses of CoPP 1 μmol/kg b.w. s.c.; n = 6; control 1.85 ± 0.15
Protocol: as §1, §2, §3

[10] = tested on: δ-Aminolevulinic acid synthase; assay: Hepatic δ-aminolevulinic acid synthase activity of treated rats (Example 1); type: in vivo, Sprague-Dawley rat; details: Day 71; 10 serial doses of CoPP 1 μmol/kg b.w. s.c.; n = 6; control 0.29 ± 0.02
Protocol: as §1, §2, §3

[11] = tested on: Aryl hydrocarbon hydroxylase; assay: Hepatic aryl hydrocarbon hydroxylase activity of treated rats (Example 1); type: in vivo, Sprague-Dawley rat; details: Day 71; 10 serial doses of CoPP 1 μmol/kg b.w. s.c.; n = 6; control 275 ± 24
Protocol: as §1, §2, §3

[12] = tested on: 7-Ethoxycoumarin de-ethylase; assay: Hepatic 7-ethoxycoumarin de-ethylase activity of treated rats (Example 1); type: in vivo, Sprague-Dawley rat; details: Day 71; 10 serial doses of CoPP 1 μmol/kg b.w. s.c.; n = 6; control 0.41 ± 0.04
Protocol: as §1, §2, §3

[13] = tested on: Ethylmorphine demethylase; assay: Hepatic ethylmorphine demethylase activity of treated rats (Example 1); type: in vivo, Sprague-Dawley rat; details: Day 71; 10 serial doses of CoPP 1 μmol/kg b.w. s.c.; n = 6; control 0.43 ± 0.05
Protocol: as §1, §2, §3

[14] = tested on: Aniline hydroxylase; assay: Hepatic aniline hydroxylase activity of treated rats (Example 1); type: in vivo, Sprague-Dawley rat; details: Day 71; 10 serial doses of CoPP 1 μmol/kg b.w. s.c.; n = 6; control 59 ± 3.48
Protocol: as §1, §2, §3

[15] = tested on: hormone concentrations; assay: Hormone concentrations of treated rats, overall statement (Example 1); type: in vivo, Sprague-Dawley rat
Protocol: as §1

[16] = tested on: heme pathway and cytochrome P-450-dependent enzyme activities; assay: Heme pathway and cytochrome P-450-dependent enzyme activities of treated rats, overall statement (Example 1); type: in vivo, Sprague-Dawley rat; details: CoPP 1 μmol/kg b.w. s.c. weekly, 10 doses
Protocol: as §1

[17] = Body weight of adult male Beagle dogs after weekly intramuscular injections (Example 2); type: in vivo, Beagle dog
Protocol: (§4) Adult male Beagle dogs (≈1 year) were housed in single runs with free access to Purina dog chow and water. On day 0, 3 animals were injected intramuscularly in the upper posterolateral aspect of the hindlimb with CoPP 2.5 μmol/kg b.w., and 3 animals with control vehicle. Injections (Vertical arrows in FIG. 2) were repeated weekly, in alternating hindlimbs, until a: total of 9 doses had been given. Animal weights were recorded thrice weekly and means are presented in FIG. 2 ( is control and is treated animals).

[18] = tested on: testosterone; assay: Serum testosterone of male Beagle dogs after weekly intramuscular injections (Example 2); type: in vivo, Beagle dog; details: for Testosterone (serum): n = 3
Protocol: as §4
The effects of 9 serial doses of CoPP 2.5 μmol/kg b.w. on serum
testosterone concentrations in male Beagle dogs.

[19] = Body weight of adult male rats after intraventricular injection, dose response (Example 3); type: in vivo, rat
Protocol: Adult male rats were anesthetized during stereotaxic placement of chronic indwelling catheters into the third ventricle of the brain. After 3-4 days post-operative recovery, animals were injected intraventricularly (i/vt) with small volumes (<10μl) of vehicle or CoPP 0.1, 0.2 (o) or 0.4 μmol/kg b.w.

[20] = Body weight of adult male rats treated intraventricularly (Example 4); type: in vivo, rat; details: i/vt CoPP 0.4 μmol/kg b.w.; 5 animals; FIG. 4
Text: FIG. 4 depicts the means ±SEM of the body weights of 5 adult male rats treated i/vt with vehicle and 5 animals with CoPP 0.4 μmol/kg b.w. ( , lower panel).

[21] = tested on: testosterone; assay: Testosterone concentration of adult male rats treated intraventricularly (Example 4); type: in vivo, rat; details: i/vt CoPP 0.4 μmol/kg b.w.; 5 animals; FIG. 4
[22] = Prolonged body weight loss after single intraventricular treatment (Example 5); type: in vivo, rat; details: single i/vt CoPP 0.2 or 0.4 μmol/kg b.w.; n=4; FIG. 5
Text: The prolonged loss of body weight following single i/vt treatments with CoPP 0.2 or 0.4 μmol/kg b.w. are contrasted with that of vehicle-treated rats in FIG. 5 (n=4).

[23] = tested on: cytochrome P-450; details: administration to animals; lowest level 25 μm/kg body weight; cited from earlier work
[24] = similar administration to FIGS. 1-5
[25] = at about 10 μm/kg b.w., say 9.8 μm/kg b.w.
[26] = preferred range 0.1 to 0.3 μm/kg b.w.
[27] = CoPP 1 μmol/kg b.w. s.c. weekly, 10 doses

Q: With CCC1=C(C)c2cc3[n-]c(cc4[n-]c(cc5nc(cc1n2)C(C)=C5CC)c(C)c4CCC(=O)[O-])c(CCC(=O)[O-])c3C.[Co+2].[H+].[H+] [CoMP, cobalt mesoporphyrin] as the compound, how does the “Improved P/F ratio, lowest dosage” value [1] read?
A: continues even down to as low as 0.1 μm/kg b.w.

Q: What about the “Weight control activity, lowest dosage” value [1] of the same compound?
A: continues even down to as low as 0.1 μm/kg b.w.

Q: And the P/F ratio [1, 24]?
A: improved P/F ratios

Q: And the “Results relative to those illustrated in the figures for CoPP” value [1, 24]?
A: Comparable results

Q: What about the Endocrine suppression activity ([2]; at 4 μm/kg b.w.) of the same compound?
A: effectively disappeared

Q: What about the Endocrine suppression activity [2, 25] of the same compound?
A: negligible

Q: What about the Endocrine suppression activity ([2]; dependence on dosage) of the same compound?
A: declines as the dosage is decreased

Q: What about the Endocrine suppression activity [2, 26] of the same compound?
A: substantially no endocrine suppression activity

Q: And the “Endocrine suppression, weight control and P/F ratio” value [3]?
A: endocrine suppression, weight control and improved P/F ratio all take place simultaneously

Q: What about the “Production of gonadal hormones” value [3] of the same compound?
A: limit the production of gonadal hormones

Q: What about the “Production of thyroid hormones” value [3] of the same compound?
A: suppress the production of thyroid hormones

Q: What does the source list for C=CC1=C(C)c2cc3[n-]c(cc4nc(cc5[n-]c(cc1n2)c(C)c5CCC(=O)[O-])C(CCC(=O)[O-])=C4C)c(C)c3C=C.[Co+2].[H+].[H+] [CoPP, cobalt protoporphyrin]?
A: Difference in weights of control and CoPP-treated rats [4, 27]: highly significant; Body weight ([4]; Day 71, 10 serial doses of CoPP 1 μmol/kg b.w. s.c. weekly, n = 12, control 568 ± 16): 442 ± 5 g; Body weight ([4]; Day 124, 10 serial doses of CoPP 1 μmol/kg b.w. s.c., n = 6, control 633 ± 39): 541 ± 12 g; Body weight change (FIG. 1) ([4]; adult male rats, Example 1): decrease in body weight; Testosterone ([5]; Day 71, control 1.96 ± 0.29): 1.72 ± 0.23 ng/mL; Testosterone ([5]; Day 124, control 2.64 ± 0.25): 3.59 ± 0.90 ng/mL; LH [6]: 24.2 ± 6.14 ng/mL; Insulin [7]: 191 ± 43.6 μU/ml; Cytochrome P-450 [8]: 0.70 ± 0.12 nmol/mg protein; Heme oxygenase [9]: 2.08 ± 0.21 nmol bilirubin/mg prot/hr; δ-Aminolevulinic acid synthase [10]: 0.30 ± 0.01 μmol ALA/mg prot/90'; Aryl hydrocarbon hydroxylase [11]: 291 ± 28 pmol 80HBP/mg prot/hr; 7-Ethoxycoumarin de-ethylase [12]: 0.53 ± 0.03 μmol/mg prot/hr; Ethylmorphine demethylase [13]: 0.49 ± 0.04 μmol form/mg prot/hr; Aniline hydroxylase [14]: 74 ± 4.62 nmol p-aminop./mg prot/hr; Difference in hormone concentrations vs control [15, 27]: no significant differences; Hormone concentration change (FIG. 1 with Table I) ([15]; adult male rats, Example 1): without decrease in hormone concentration; Difference in heme pathway and cytochrome P-450-dependent enzyme activities vs control [16]: no significant differences; Body weight change (FIG. 2) ([17]; adult male dogs, Example 2): decrease in body weight; Mean weights ([17]; after first 3 weeks, CoPP 2.5 μmol/kg b.w. i.m. weekly): progressively decreased thereafter to a nadir at day 74; Recovery of body weight ([17]; by day 84, CoPP 2.5 μmol/kg b.w. i.m. weekly, 9 doses): returned to their pre-treatment weights; Mean weights ([17]; first 3 weeks of treatment, CoPP 2.5 μmol/kg b.w. i.m. weekly): unchanged; Loss of body weight ([17]; nadir at day 74, CoPP 2.5 μmol/kg b.w. i.m. weekly, 9 doses): approximately 25 % of their body weight; Testosterone (serum) ([18]; Day 0 (before start of the experiment), CoPP 2.5 μmol/kg b.w. group, control 1.82 ± 0.65): 2.03 ± 0.57 ng/mL; Testosterone (serum) ([18]; Day 62, 9 serial doses of CoPP 2.5 μmol/kg b.w. i.m. weekly, control 1.73 ± 0.52): 2.15 ± 1.52 ng/mL; Testosterone (serum) ([18]; Day 112, 9 serial doses of CoPP 2.5 μmol/kg b.w. i.m. weekly, control 1.67 ± 0.03): 1.92 ± 0.83 ng/mL; Testosterone level change (FIG. 2 with Table II) ([18]; adult male dogs, Example 2): no decrease in testosterone levels; Effect on testosterone concentrations ([18]; days 62 and 112, CoPP 2.5 μmol/kg b.w. i.m.): no effect; Weight loss (FIG. 3) ([19]; adult male rats, intraventricular administration, Example 3): weight loss achieved; Effects on body weight, dose dependence ([19]; i/vt CoPP 0.1, 0.2 or 0.4 μmol/kg b.w., 4-6 animals per group): dose responsive; i/vt dosage relative to s/c dosage required to elicit the same changes (fold less) ([19]; intraventricular versus s/c administration): 50-100 fold less; Weight loss [20]: typical weight loss; Testosterone concentrations vs vehicle-treated rats [21]: without significant changes in testosterone concentration; also recorded: not significantly different; Loss of body weight after single i/vt treatment [22]: prolonged weight loss; also recorded: prompt decrease in weight; Weight differential between treated and untreated animals [22]: maintained for the duration of the treatment; Improved P/F ratio, lowest dosage [1]: continues even down to as low as 0.1 μm/kg b.w.; Weight control activity, lowest dosage [1]: continues even down to as low as 0.1 μm/kg b.w.; P/F ratio [1, 24]: improved P/F ratios; Endocrine suppression activity ([2]; at 4 μm/kg b.w.): effectively disappeared; Endocrine suppression activity [2, 25]: negligible; Endocrine suppression activity ([2]; dependence on dosage): declines as the dosage is decreased; Endocrine suppression activity [2, 26]: substantially no endocrine suppression activity; Cytochrome P-450 content of the liver [23]: deplete the cytochrome P-450 content of the liver; Endocrine suppression, weight control and P/F ratio [3]: endocrine suppression, weight control and improved P/F ratio all take place simultaneously; Production of gonadal hormones [3]: limit the production of gonadal hormones; Production of thyroid hormones [3]: suppress the production of thyroid hormones
